Source: US20140107166A1, “HISTONE DEACETYLASE INHIBITORS AND METHODS OF USE THEREOF” (DANA-FARBER CANCER INSTITUTE, INC., priority 2011, published 2014)

Test system: HDACs
Assay: HDAC deacetylase inhibition assay (trypsin-coupled fluorescent substrate)
Format: biochemical
Experimental: Selected compounds of the invention were tested for activity against a number of HDACs. The assays were performed substantially as described in PCT Patent Application WO/2008/091349. In brief, a target substrate is incubated with an HDAC or other protein with deacetylase activity in the presence of a test compound. In certain embodiments, the target substrate includes an acetylated lysine residue. Deacetylation of the substrate allows trypsin or another protease to cleave the substrate, thereby releasing a fluorescent probe. Fluorescence can be continuously monitored in order to determine the ability of the test compound to inhibit the deacetylation activity. The HDAC or other enzyme may be purified or used crude in the inventive assay. In certain embodiments, the assay is a cell-free assay.

CCCCOc1ccc(CC(=O)NO)cc1 [bufexamac]
inhibition of HDAC (result in words): inhibitor of HDAC
